Results reported in patent US20050282755A1, “Compositions having antimicrobial activity and uses thereof” (priority 2004, published 2005).
In brackets after ≈: the same amount, converted by molar mass. Like-named read-outs stand apart in the source and are kept apart here. Starred links: 1 amine or outer side, 2 acyl side, 3 side chain; linkers in the order of their positions; H or OH if unused. Non-standard residues stand in square brackets, D forms with d. Residues, ends and D or L forms follow the SMILES beside them. *: point of attachment. Ethylenediamine = C(CN[*:2])N[*:1]; Lauroyl = CCCCCCCCCCCC(=O)*; Decanoyl = CCCCCCCCCC(=O)*; Octanoyl = CCCCCCCC(=O)*

How the values were obtained:
Format in all cases: cell-based
Salmonella dublin (Lane) = assay: MIC, NCCLS M7-A6 broth microdilution (Table 9, no superscript)
Summary of the method: (§1)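 Broth microdilution in cation-adjusted Mueller Hinton broth with log-phase inoculum at 5×10^5 to 1×10^6 CFU/mL, incubated overnight at 37° C. MIC was the lowest peptide concentration showing no visible turbidity versus the no-peptide control.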

[1] = system: Propionibacterium acnes ATCC 6919
Method: A second method that was used to determine the MIC in P. acnes for selected antimicrobial agents was a non-standard broth microdilution method that used an assay buffer composed of reinforced Clostridial broth. Briefly, a log-phase bacterial culture of P. acnes was used to inoculate wells of a 96-well plate so that the final inoculum for each well contained 5×10^5 to 1×10^6 CFU/milliliter. […] Plates were incubated for 48-72 hours at 37° C. in a GasPak anaerobic chamber. The lowest concentration of peptide that contained no visible growth as evidenced by a lack of turbidity when compared to the control (no peptide) was determined as the MIC. MIC values that utilized this method of MIC determination are indicated in Table 9 with a subscript letter “d.”

[2] = system: Staphylococcus aureus ATCC 29213; assay: MIC, NCCLS M7-A6 broth microdilution, cation-adjusted Mueller Hinton broth (Table 9, no superscript); details: ATCC 29213
Summary of the method: as §1

[3] = system: Candida albicans ATCC 18804; assay: MIC in yeasts, NCCLS M27-A2 broth microdilution, RPMI 1640 (Table 9, letter e); details: ATCC 18804
Summary of the method: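 Broth microdilution per NCCLS M27-A2 in RPMI 1640 with glutamine and phenol red, final inoculum 0.5×10^3–2.5×10^3 CFU/milliliter. Incubated 24 to 48 hours at 37° C; MIC is the lowest peptide concentration with no visible growth.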

[4] = system: Propionibacterium acnes ATCC 6919; assay: MIC, agar dilution method NCCLS M11-A6, Brucella agar, anaerobic (Table 9, superscript c); details: ATCC 6919
Summary of the method: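 Agar dilution per NCCLS M11-A6 on Brucella agar; final inoculum 1.5×10^8 CFU/milliliter applied to plates, incubated 48-96 hours at 37° C. under anaerobic (GasPak) conditions. MIC = lowest peptide concentration with no colony growth.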

[5] = system: Escherichia coli ATCC 25922; assay: MIC, NCCLS M7-A6 broth microdilution (Table 9, no superscript); details: ATCC 25922
Summary of the method: as §1

[6] = system: Staphylococcus epidermidis ATCC 12228; assay: as above; details: ATCC 12228
Summary of the method: as §1

[7] = system: Pseudomonas aeruginosa ATCC 27853; assay: as above; details: ATCC 27853
Summary of the method: as §1

Structure (SMILES)	MIC S. dublin (Salmonella dublin (Lane)) [µg/mL]	MIC P. acnes [1] [µg·days/mL]	MIC S. aureus [2] [µg/mL]	MIC C. albicans [3] [e ug/mL]	MIC P. acnes [4] [c ug/mL]	MIC E. coli [5] [µg/mL]	MIC S. epidermidis [6] [µg/mL]	MIC P. aeruginosa [7] [µg/mL]
CC(=O)N[C@@H](C(=O)N[C@H](CCCNC(=N)N)C(=O)N[C@@H](C(=O)N[C@H](CO)C(=O)N[C@H](CCCNC(=N)N)C(=O)N[C@@H](C(=O)NCC(=O)N[C@H](CCCNC(=N)N)C(=O)N[C@H](CO)C(=O)N[C@H](CCCNC(=N)N)C(=O)N[C@H](Cc1c[nH]c2ccccc12)C(=O)N[C@H](CCCNC(=N)N)C(=O)N[C@H](CC(=O)O)C(=O)N[C@H](Cc1c[nH]c2ccccc12)C(=O)N[C@H](CO)C(=O)N[C@H](CCCNC(=N)N)C(=O)N[C@H](CC(N)=O)C(=O)N[C@H](Cc1ccccc1)C(=O)N[C@H](C)C(=O)N[C@H](CCCNC(=N)N)C(N)=O)[C@H](C)O)C(C)C)[C@H](C)O [Peptide 61, Ac-trvsrtgrsrwrdwsrnfar-NH2] (Ac-[dT][dR][dV][dS][dR][dT]G[dR][dS][dR][dW][dR][dD][dW][dS][dR][dN][dF][dA][dR]-NH2)	>64	12.5	>64	–	–	–	–	–
CCCCCCCCCC(=O)NCCCC[C@H](NC(=O)[C@H](CCCNC(=N)N)NC(=O)[C@H](CCSC)NC(=O)[C@H](Cc1ccccc1)NC(=O)[C@H](CC(N)=O)NC(=O)[C@H](CCCNC(=N)N)NC(=O)[C@H](C)NC(=O)[C@@H](NC(=O)[C@H](CC(=O)O)NC(=O)[C@H](CCCNC(=N)N)NC(=O)[C@H](Cc1c[nH]c2ccccc12)NC(=O)[C@H](CCCNC(=N)N)NC(=O)[C@H](CO)NC(=O)[C@@H](N)CCCNC(=N)N)C(C)C)C(N)=O [Peptide 185, H2N-RSRWRDVARNFMRK(Decanyl)-NH2] (H-RSRWRDVARNFMRK(Decanoyl)-NH2)	16 (≈ 7.88 µM)	–	4 (≈ 1.97 µM)	32	32	8 (≈ 3.94 µM)	1 (≈ 0.492 µM)	16 (≈ 7.88 µM)
CCCCCCCCCCCC(=O)N[C@@H](CCCNC(=N)N)C(=O)N[C@@H](CO)C(=O)N[C@@H](CCCNC(=N)N)C(=O)N[C@@H](Cc1c[nH]c2ccccc12)C(=O)N[C@@H](CCCNC(=N)N)C(=O)N[C@@H](CC(=O)O)C(=O)N[C@H](C(=O)N[C@@H](C)C(N)=O)C(C)C [Peptide 102, Lauryl-RSRWRDVA-NH2] (Lauroyl-RSRWRDVA-NH2)	>64	–	4 (≈ 3.26 µM)	64	>64	>64	8 (≈ 6.52 µM)	64 (≈ 52.2 µM)
CCCCCCCC(=O)NCCNC(=O)[C@H](CCCNC(=N)N)NC(=O)[C@H](CCSC)NC(=O)[C@H](Cc1ccccc1)NC(=O)[C@H](CC(N)=O)NC(=O)[C@H](CCCNC(=N)N)NC(=O)[C@H](C)NC(=O)[C@@H](NC(=O)[C@H](CC(=O)O)NC(=O)[C@H](CCCNC(=N)N)NC(=O)[C@H](Cc1c[nH]c2ccccc12)NC(=O)[C@H](CCCNC(=N)N)NC(=O)[C@H](CO)NC(=O)[C@@H](N)CCCNC(=N)N)C(C)C [Peptide 174, H2N-RSRWRDVARNFMR-Ethylamidooctanyl] (H-RSRWRDVARNFMR-{Ethylenediamine-Octanoyl}; C-terminus assumed)	16 (≈ 8.34 µM)	–	8 (≈ 4.17 µM)	32	64	2 (≈ 1.04 µM)	1 (≈ 0.521 µM)	4 (≈ 2.09 µM)
CCCCCCCCCC(=O)NCCCC[C@H](NC(=O)[C@H](CCCNC(=N)N)NC(=O)[C@H](CC(C)C)NC(=O)[C@H](Cc1ccccc1)NC(=O)[C@H](CC(N)=O)NC(=O)[C@H](CCCNC(=N)N)NC(=O)[C@H](C)NC(=O)[C@@H](NC(=O)[C@H](CC(=O)O)NC(=O)[C@H](CCCNC(=N)N)NC(=O)[C@H](Cc1c[nH]c2ccccc12)NC(=O)[C@H](CCCNC(=N)N)NC(=O)[C@H](CO)NC(=O)[C@@H](N)CCCNC(=N)N)C(C)C)C(N)=O [Peptide 180, H2N-RSRWRDVARNFLRK(Decanyl)-NH2] (H-RSRWRDVARNFLRK(Decanoyl)-NH2)	16 (≈ 7.95 µM)	–	8 (≈ 3.97 µM)	16	64	4 (≈ 1.99 µM)	1 (≈ 0.497 µM)	4 (≈ 1.99 µM)

Further lines, results first:

MIC S. dublin (Salmonella dublin (Lane)) [µg/mL]	MIC P. acnes [1] [µg·days/mL]	MIC S. aureus [2] [µg/mL]	MIC C. albicans [3] [e ug/mL]	MIC P. acnes [4] [c ug/mL]	MIC E. coli [5] [µg/mL]	MIC S. epidermidis [6] [µg/mL]	MIC P. aeruginosa [7] [µg/mL]	Structure (SMILES)
4 (≈ 1.99 µM)	–	2 (≈ 0.993 µM)	16	4	2 (≈ 0.993 µM)	1 (≈ 0.497 µM)	2 (≈ 0.993 µM)	CCCCCCCCCC(=O)NCCCC[C@@H](NC(=O)[C@@H](CCCNC(=N)N)NC(=O)[C@@H](CC(C)C)NC(=O)[C@@H](Cc1ccccc1)NC(=O)[C@@H](CC(N)=O)NC(=O)[C@@H](CCCNC(=N)N)NC(=O)[C@@H](C)NC(=O)[C@H](NC(=O)[C@@H](CC(=O)O)NC(=O)[C@@H](CCCNC(=N)N)NC(=O)[C@@H](Cc1c[nH]c2ccccc12)NC(=O)[C@@H](CCCNC(=N)N)NC(=O)[C@@H](CO)NC(=O)[C@H](N)CCCNC(=N)N)C(C)C)C(N)=O [Peptide 194, H2N-rsrwrdvarnflrk(Decanyl)-NH2] (H-[dR][dS][dR][dW][dR][dD][dV][dA][dR][dN][dF][dL][dR][dK](Decanoyl)-NH2)
8 (≈ 3.94 µM)	–	2 (≈ 0.985 µM)	32	8	4 (≈ 1.97 µM)	1 (≈ 0.492 µM)	4 (≈ 1.97 µM)	CCCCCCCCCC(=O)NCCCC[C@@H](NC(=O)[C@@H](CCCNC(=N)N)NC(=O)[C@@H](CCSC)NC(=O)[C@@H](Cc1ccccc1)NC(=O)[C@@H](CC(N)=O)NC(=O)[C@@H](CCCNC(=N)N)NC(=O)[C@@H](C)NC(=O)[C@H](NC(=O)[C@@H](CC(=O)O)NC(=O)[C@@H](CCCNC(=N)N)NC(=O)[C@@H](Cc1c[nH]c2ccccc12)NC(=O)[C@@H](CCCNC(=N)N)NC(=O)[C@@H](CO)NC(=O)[C@H](N)CCCNC(=N)N)C(C)C)C(N)=O [Peptide 199, H2N-rsrwrdvarnfmrk(Decanyl)-NH2] (H-[dR][dS][dR][dW][dR][dD][dV][dA][dR][dN][dF][dM][dR][dK](Decanoyl)-NH2)
32 (≈ 16.1 µM)	–	4 (≈ 2.02 µM)	4	>64	16 (≈ 8.07 µM)	2 (≈ 1.01 µM)	8 (≈ 4.04 µM)	CCCCCCCCCCCC(=O)N[C@H](CCCNC(=N)N)C(=O)N[C@H](CCCCN)C(=O)N[C@H](CCCNC(=N)N)C(=O)N[C@H](Cc1c[nH]c2ccccc12)C(=O)N[C@H](CCCNC(=N)N)C(=O)N[C@H](CCCCN)C(=O)N[C@@H](C(=O)N[C@H](C)C(=O)N[C@H](CCCNC(=N)N)C(=O)N[C@H](CCCCN)C(=O)N[C@H](Cc1ccccc1)C(=O)N[C@H](CC(C)C)C(=O)N[C@H](CCCNC(=N)N)C(N)=O)C(C)C [Peptide 223, Lauryl-rkrwrkvarkflr-NH2] (Lauroyl-[dR][dK][dR][dW][dR][dK][dV][dA][dR][dK][dF][dL][dR]-NH2)
32 (≈ 16 µM)	–	16 (≈ 7.99 µM)	64	16	16 (≈ 7.99 µM)	4 (≈ 2 µM)	64 (≈ 31.9 µM)	CCCCCCCC(=O)NCCCC[C@@H](NC(=O)[C@@H](CCCNC(=N)N)NC(=O)[C@@H](CCSC)NC(=O)[C@@H](Cc1ccccc1)NC(=O)[C@@H](CC(N)=O)NC(=O)[C@@H](CCCNC(=N)N)NC(=O)[C@@H](C)NC(=O)[C@H](NC(=O)[C@@H](CC(=O)O)NC(=O)[C@@H](CCCNC(=N)N)NC(=O)[C@@H](Cc1c[nH]c2ccccc12)NC(=O)[C@@H](CCCNC(=N)N)NC(=O)[C@@H](CO)NC(=O)[C@H](N)CCCNC(=N)N)C(C)C)C(N)=O [Peptide 198, H2N-rsrwrdvarnfmrk(Octanyl)-NH2] (H-[dR][dS][dR][dW][dR][dD][dV][dA][dR][dN][dF][dM][dR][dK](Octanoyl)-NH2)
4 (≈ 2.09 µM)	–	4 (≈ 2.09 µM)	16	16	4 (≈ 2.09 µM)	1 (≈ 0.522 µM)	8 (≈ 4.18 µM)	CCCCCCCCCCCC(=O)N[C@H](CCCNC(=N)N)C(=O)N[C@H](C)C(=O)N[C@H](CCCNC(=N)N)C(=O)N[C@H](Cc1c[nH]c2ccccc12)C(=O)N[C@H](CCCNC(=N)N)C(=O)N[C@H](CC(=O)O)C(=O)N[C@@H](C(=O)N[C@H](C)C(=O)N[C@H](CCCNC(=N)N)C(=O)N[C@H](CC(N)=O)C(=O)N[C@H](Cc1ccccc1)C(=O)N[C@H](CCSC)C(=O)N[C@H](CCCNC(=N)N)C(N)=O)C(C)C [Peptide 237, Lauryl-rarwrdvarnfmr-NH2] (Lauroyl-[dR][dA][dR][dW][dR][dD][dV][dA][dR][dN][dF][dM][dR]-NH2)
